According to US20030159171A1, “Novel plant genes and uses thereof” (Syngenta Participations AG, priority 1999, published 2003):

System: sugarbeet NIM-like clone (SEQ ID NO:39 and 63)
Assay: Northern analysis of sugarbeet NIM-like clone expression after BTH treatment
Assay type: in vivo, Beta vulgaris
Details: after 100 μM or 300 μM BTH treatment

## CSC(=O)c1cccc2nnsc12 [BTH, benzo(1,2,3)thiadiazole-7-carbothioic acid S-methyl ester]
  increase of expression of the sugarbeet NIM-like clone (Northern data): three to seven
